Holding throughout (format): in vivo
One experiment deals with Nezara viridula. The experiment is described as follows: Nezara viridula spray test (NEZARA / NEZAVI). As to conditions: Nezara viridula, 96 h, 4 g/ha, 4 dat, read-out: % efficacy. Put shortly: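 Barley plants infested with Nezara viridula larvae were sprayed with active ingredient in solvent/emulsifier water (1000 ppm emulsifier; ammonium salt or penetrant at 1000 ppm if added). Efficacy scored as % mortality after the set time (100% = all bugs killed).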

A further experiment concerns Lucilia cuprina. Kind of experiment: Lucilia cuprina test. As to conditions: 48 h, L1 larvae, after 2 days, read-out: efficacy (kill). Put shortly: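 About 20 L1 larvae of Lucilia cuprina placed on minced horsemeat containing compound (DMSO stock diluted in water to test concentration). Kill (%) scored after 2 days; 100% = all larvae dead, 0% = none dead.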
In experiment [1] the test system is Ctenocephalides felis. Kind of experiment: Ctenocephalides felis oral test. As to conditions: 100 ppm, after 2 days. The method, then: Solvent: dimethyl sulfoxide To produce a suitable active ingredient formulation, 10 mg of active ingredient are mixed with 0.5 ml of dimethyl sulfoxide. Dilution with citrated cattle blood gives the desired concentration. About 20 unfed adult cat fleas (Ctenocephalides felis) are placed into a chamber which is closed at the top and bottom with gauze. A metal cylinder whose bottom end is closed with parafilm is placed onto the chamber. The cylinder contains the blood/active ingredient formulation, which can be imbibed by the fleas through the parafilm membrane. After 2 days, the kill in % is determined. 100% means that all of the fleas have been killed; 0% means that none of the fleas have been killed.

A further experiment concerns Phaedon cochleariae. Kind of experiment: Phaedon cochleariae spray test (PHAECO), Chinese cabbage leaf discs. Conditions: Phaedon cochleariae, foliar, 168 h; for pest or weed control at 100 g/ha: 7 days (7 dat), read-out: efficacy. Put shortly:
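Chinese cabbage (Brassica pekinensis) leaf discs sprayed with compound in water with 1000 ppm emulsifier, then after drying infested with Phaedon cochleariae larvae. Efficacy (% larvae killed) scored after 7 days or the chosen interval.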

The next experiment has as its system Tetranychus urticae. The experiment is described as follows: Tetranychus urticae spray test, OP-resistant (TETRUR). The method, then: [table] To produce a suitable active ingredient formulation, 1 part by weight of active ingredient is dissolved with the specified parts by weight of solvent and made up to the desired concentration with water containing an emulsifier concentration of 1000 ppm. To produce further test concentrations, the formulation is diluted with emulsifier-containing water. Discs of bean leaves (Phaseolus vulgaris) infested with all stages of the greenhouse red spider mite (Tetranychus urticae) are sprayed with an active ingredient formulation of the desired concentration. After 6 days, the efficacy in % is determined. 100% means that all the spider mites have been killed; 0% means that no spider mites have been killed.

The next experiment relates to Myzus persicae. The experiment is described as follows: Myzus persicae spray test (MYZUPE), Chinese cabbage leaf discs. Conditions: Myzus persicae, foliar, 120 h; for Emax at 4 g/ha: MYZUPE, 5 dat, read-out: % efficacy. Put shortly: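 Leaf discs of Chinese cabbage carrying all stages of green peach aphid were sprayed with compound formulated in solvent and diluted with water containing emulsifier at 1000 ppm. Percent efficacy (100% = all aphids dead) was scored after 5 days or after the desired time.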

The subject of experiment [2] is Ctenocephalides felis. Kind of experiment: Ctenocephalides felis in vitro contact test with adult cat fleas. Conditions: 5 μg/cm^2 (=500 g/ha), after 48 h. The protocol: For the coating of the test tubes, 9 mg of active ingredient are first dissolved in 1 ml of acetone p.a. and then diluted to the desired concentration with acetone p.a. 250 μl of the solution are distributed homogeneously on the inner walls and the base of a 25 ml glass tube by turning and rocking on an orbital shaker (rocking rotation at 30 rpm for 2 h). With 900 ppm of active ingredient solution and internal surface area 44.7 cm^2, given homogeneous distribution, an area-based dose of 5 μg/cm^2 is achieved. After the solvent has evaporated off, the tubes are populated with 5-10 adult cat fleas (Ctenocephalides felis), sealed with a perforated plastic lid and incubated in a horizontal position at room temperature and ambient humidity. After 48 h, efficacy is determined. To this end, the tubes are stood upright and the fleas are knocked to the base of the tube. Fleas which remain motionless at the base or move in an uncoordinated manner are considered to be dead or moribund. […] 100% efficacy means that all the fleas were dead or moribund. 0% efficacy means that no fleas were harmed.

The mark [3] stands for this setting: Tetranychus urticae, 144 h, TETRUR, 6 dat, read-out: % efficacy.
The mark [4] stands for this setting: 5 days (5 dat), read-out: efficacy.

Turning to `CCS(=O)(=O)c1ccc(NC(=O)NC)nc1-c1nc2cc(C(F)(F)C(F)(F)F)nnc2n1C` [Example I-08, 1-{5-(ethylsulfonyl)-6-[7-methyl-3-(pentafluoroethyl)-7H-imidazo[4,5-c]pyridazin-6-yl]pyridin-2-yl}-3-methylurea], the Emax at 4 g/ha in the experiment on Nezara viridula was 90%. The pest or weed control at 100 ppm with Lucilia cuprina came out at 100%. Further, in the experiment on Ctenocephalides felis [1], the “efficacy (kill)” value was found to be 100%. For the same compound, the pest or weed control at 100 g/ha worked out at 100% in the experiment on Phaedon cochleariae and 90% with Myzus persicae (100 g/ha, 5 days (5 dat), read-out: efficacy). For the same compound, the efficacy with Tetranychus urticae (4 g/ha, after 6 days) is on record as 90%. In addition, in the experiment on Tetranychus urticae (Tetranychus urticae, 144 h, TETRUR, 20 g/ha, 6 dat, read-out: % efficacy), the Emax at 20 g/ha stood at 70%. In addition, in the experiment on Tetranychus urticae (setting [3]), the Emax at 100 g/ha was 70%. The pest or weed control at 20 g/ha in the experiment with Myzus persicae (setting [4]) is 100%.

As to `CCS(=O)(=O)c1ccc(N(C)C(=O)NC)nc1-c1nc2cc(C(F)(F)C(F)(F)F)nnc2n1C` [Example I-09], the Emax at 4 g/ha came out at 70% with Nezara viridula; 83% with Phaedon cochleariae (PHAECO, 4 g/ha, 7 dat, read-out: % efficacy); 70% in the experiment with Myzus persicae. For the same compound, the pest or weed control at 100 ppm with Lucilia cuprina was determined as 100%. Also, the “efficacy (kill)” value with Ctenocephalides felis [1] came to 100%. The compound also returned an efficacy with Ctenocephalides felis [2] of 100%. For the same compound, in the experiment with Phaedon cochleariae, the pest or weed control at 100 g/ha stood at 100%. The compound further came in with a percent efficacy (larval mortality) at a fixed application rate at 20 g/ha in the experiment on Phaedon cochleariae (PHAECO, 7 dat) of 100%. Moreover, the Emax at 100 g/ha in the experiment on Tetranychus urticae (setting [3]) worked out at 70%. For the same compound, the pest or weed control at 20 g/ha in the experiment on Myzus persicae (setting [4]) came to 100%.

Turning to `CCNC(=O)Nc1ccc(S(=O)(=O)CC)c(-c2nc3cc(C(F)(F)C(F)(F)F)nnc3n2C)n1` [Example I-13], the Emax at 4 g/ha in the experiment on Nezara viridula turned out to be 80%. The pest or weed control at 100 ppm in the experiment on Lucilia cuprina was 100%. Also, the “efficacy (kill)” value with Ctenocephalides felis [1] was 100%. Moreover, the efficacy with Ctenocephalides felis [2] was found to be 100%. Moreover, in the experiment with Phaedon cochleariae, the pest or weed control at 100 g/ha amounted to 100%. The compound further displayed a percent efficacy (larval mortality) at a fixed application rate at 4 g/ha with Phaedon cochleariae (PHAECO, 4 g/ha, 7 dat) of 100%. For the same compound, the percent efficacy (larval mortality) at a fixed application rate at 20 g/ha in the experiment on Phaedon cochleariae (PHAECO, 7 dat) came to 100%. In addition, the pest or weed control at 20 g/ha in the experiment on Myzus persicae (setting [4]) was 90%.

In the case of `CCS(=O)(=O)c1ccc(NC(=O)N(C)C)nc1-c1nc2cc(C(F)(F)C(F)(F)F)nnc2n1C` [Example I-10], the Emax at 4 g/ha is 80% with Nezara viridula and 70% in the experiment with Myzus persicae. Further, the pest or weed control at 100 ppm in the experiment with Lucilia cuprina turned out to be 100%. Besides, the “efficacy (kill)” value with Ctenocephalides felis [1] was found to be 100%. In the experiment with Ctenocephalides felis [2], this compound returned an efficacy of 100%. Further, in the experiment with Phaedon cochleariae, the pest or weed control at 100 g/ha turned out to be 100%. Besides, in the experiment on Tetranychus urticae (setting [3]), the Emax at 100 g/ha was 70%. Moreover, the pest or weed control at 20 g/ha in the experiment on Myzus persicae (setting [4]) was found to be 100%.

The record behind these values is patent US11089783B2, “2-(het)aryl-substituted fused heterocycle derivatives as pesticides” (Bayer Aktiengesellschaft, priority 2017, dated 2021).
